Data published in US11623919B2, “Heterocyclic P2X7 antagonists” (AXXAM S.P.A., priority 2017, dated 2023).

Legend:
P2X7 receptor [1] = target: T1, P2X7 receptor (Mus musculus, UniProt Q9Z1M0); assay: Screen Quest Fluo-8 No Wash Calcium Assay (Bz-ATP evoked Ca2+ influx, FLIPR); assay type: cell-based; details: mP2X7; HEK-293 cells stably transfected with P2X7 receptor, Bz-ATP at EC80, Fluo-8 NW; potency ranges A-D
T1 construct: mP2X7 (IC50; nM); other: mP2X7; HEK-293 cells stably transfected with P2X7 receptor, Bz-ATP at EC80, Fluo-8 NW; potency
T1 sequence (Q9Z1M0 1-595): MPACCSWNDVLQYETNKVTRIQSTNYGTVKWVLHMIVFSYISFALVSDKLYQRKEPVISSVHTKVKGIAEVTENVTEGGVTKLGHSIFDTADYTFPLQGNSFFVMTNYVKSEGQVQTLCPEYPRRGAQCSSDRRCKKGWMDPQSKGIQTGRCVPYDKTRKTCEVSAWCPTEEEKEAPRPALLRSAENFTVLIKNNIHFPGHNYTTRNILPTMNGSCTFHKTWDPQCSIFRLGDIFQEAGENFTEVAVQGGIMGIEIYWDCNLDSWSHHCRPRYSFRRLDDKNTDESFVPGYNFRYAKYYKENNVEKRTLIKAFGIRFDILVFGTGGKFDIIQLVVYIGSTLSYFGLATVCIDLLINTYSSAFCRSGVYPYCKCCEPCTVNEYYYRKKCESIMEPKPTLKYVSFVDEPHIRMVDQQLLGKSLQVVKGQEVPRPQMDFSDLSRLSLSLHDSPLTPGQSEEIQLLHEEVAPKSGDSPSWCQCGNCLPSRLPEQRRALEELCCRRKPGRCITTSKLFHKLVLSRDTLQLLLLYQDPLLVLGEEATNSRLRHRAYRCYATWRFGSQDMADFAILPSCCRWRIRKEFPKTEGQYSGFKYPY
Procedure, shortened: (§1)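 Compounds were added to Fluo-8-loaded P2X7-transfected HEK-293 cells 5 min before an EC80 Bz-ATP challenge, and Ca2+ influx was then recorded for 3 min. Buffer held 0.3 mM Ca2+ and no Mg2+. Inhibition was normalised to A438079, giving IC50 values.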

P2X7 receptor [2] = target: T2, P2X7 receptor (Rattus norvegicus, UniProt Q64663); assay: as above; assay type: cell-based; details: rP2X7; HEK-293 cells stably transfected with P2X7 receptor, Bz-ATP at EC80, Fluo-8 NW; potency ranges A-D
T2 construct: rP2X7 (IC50; nM); other: rP2X7; HEK-293 cells stably transfected with P2X7 receptor, Bz-ATP at EC80, Fluo-8 NW; potency
T2 sequence (Q64663 1-595): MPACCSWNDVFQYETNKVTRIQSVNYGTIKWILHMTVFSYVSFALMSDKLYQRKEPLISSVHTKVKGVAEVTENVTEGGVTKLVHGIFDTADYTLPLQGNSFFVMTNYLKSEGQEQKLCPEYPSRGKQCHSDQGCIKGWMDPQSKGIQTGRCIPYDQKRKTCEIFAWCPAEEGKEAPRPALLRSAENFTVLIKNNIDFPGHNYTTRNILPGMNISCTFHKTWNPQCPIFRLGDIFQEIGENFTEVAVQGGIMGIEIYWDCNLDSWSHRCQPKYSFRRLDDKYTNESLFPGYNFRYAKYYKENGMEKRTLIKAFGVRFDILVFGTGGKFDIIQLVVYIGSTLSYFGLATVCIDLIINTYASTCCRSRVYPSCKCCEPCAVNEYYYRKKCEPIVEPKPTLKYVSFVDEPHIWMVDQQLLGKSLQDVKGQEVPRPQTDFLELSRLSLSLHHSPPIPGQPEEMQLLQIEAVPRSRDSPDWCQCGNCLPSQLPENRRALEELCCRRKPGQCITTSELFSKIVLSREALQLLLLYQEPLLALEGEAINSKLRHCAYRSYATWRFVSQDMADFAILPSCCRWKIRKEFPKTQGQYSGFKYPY
Procedure, shortened: as §1

Row | SMILES | IC50 (P2X7 receptor [1]) [nM] | IC50 (P2X7 receptor [2]) [nM]
1 | O=c1onc(Cc2cccc(Cl)c2Cl)n1CC1CCCCC1 [Example 115, 4-(cyclohexylmethyl)-3-[(2,3-dichlorophenyl)methyl]-4,5-dihydro-1,2,4-oxadiazol-5-one] | 1000 to 10000 | 200 to 1000
2 | O=c1onc(Cc2ccccc2C(F)(F)F)n1CC1CCCCC1 [Example 116, 4-(cyclohexylmethyl)-3-{[2-(trifluoromethyl)phenyl]methyl}-4,5-dihydro-1,2,4-oxadiazol-5-one] | 1000 to 10000 | 200 to 1000
3 | O=c1onc(Cc2ccccc2Cl)n1CC1CCCCC1 [Example 117, 3-[(2-chlorophenyl)methyl]-4-(cyclohexylmethyl)-4,5-dihydro-1,2,4-oxadiazol-5-one] | 200 to 1000 | < 200
4 | O=c1onc(Cc2ccc(Cl)cc2Cl)n1CC1CCCCC1 [Example 118, 4-(cyclohexylmethyl)-3-[(2,4-dichlorophenyl)methyl]-4,5-dihydro-1,2,4-oxadiazol-5-one] | 1000 to 10000 | 200 to 1000
5 | O=c1onc(Cc2ccc(F)cc2F)n1CC1CCCCC1 [Example 119, 4-(cyclohexylmethyl)-3-[(2,4-difluorophenyl)methyl]-4,5-dihydro-1,2,4-oxadiazol-5-one] | 200 to 1000 | < 200

The next lines start with the values.

Row | IC50 (P2X7 receptor [1]) [nM] | IC50 (P2X7 receptor [2]) [nM] | SMILES
6 | 200 to 1000 | < 200 | O=c1onc(Cc2ccccc2F)n1CC1CCCCC1 [Example 120, 4-(cyclohexylmethyl)-3-[(2-fluorophenyl)methyl]-4,5-dihydro-1,2,4-oxadiazol-5-one]
7 | 200 to 1000 | < 200 | O=c1onc(CC2CCCCC2)n1Cc1c(F)cccc1Cl [Example 130, 4-[(2-chloro-6-fluorophenyl)methyl]-3-(cyclohexylmethyl)-4,5-dihydro-1,2,4-oxadiazol-5-one]
8 | < 200 | < 200 | O=c1onc(CC2CCC(F)(F)CC2)n1Cc1c(F)cccc1Cl [Example 132, 4-[(2-chloro-6-fluorophenyl)methyl]-3-[(4,4-difluorocyclohexyl)methyl]-4,5-dihydro-1,2,4-oxadiazol-5-one]
9 | 1000 to 10000 | 200 to 1000 | O=c1snc(Cc2c(F)cccc2Cl)n1CC1CCCCC1 [Example 140, 3-[(2-chloro-6-fluorophenyl)methyl]-4-(cyclohexylmethyl)-4,5-dihydro-1,2,4-thiadiazol-5-one]
10 | < 200 | < 200 | O=c1snc(Cc2c(F)cccc2Cl)n1CC1CCC(F)(F)CC1 [Example 141, 3-[(2-chloro-6-fluorophenyl)methyl]-4-[(4,4-difluorocyclohexyl)methyl]-4,5-dihydro-1,2,4-thiadiazol-5-one]
11 | 200 to 1000 | 200 to 1000 | O=c1onc(Cc2c(F)cccc2Cl)n1CCC1CCCCC1 [Example 142, 3-(2-chloro-6-fluorobenzyl)-4-(2-cyclohexylethyl)-1,2,4-oxadiazol-5(4H)-one]
12 | 1000 to 10000 | 200 to 1000 | Cc1noc(C)c1Cc1noc(=O)n1CC1CCCCC1 [Example 210, 4-(cyclohexylmethyl)-3-[(dimethyl-1,2-oxazol-4-yl)methyl]-4,5-dihydro-1,2,4-oxadiazol-5-one]
13 | 1000 to 10000 | 200 to 1000 | Cc1noc(C)c1Cc1noc(=O)n1CC1CCC(F)(F)CC1 [Example 211, 4-[(4,4-difluorocyclohexyl)methyl]-3-[(dimethyl-1,2-oxazol-4-yl)methyl]-4,5-dihydro-1,2,4-oxadiazol-5-one]
